Measurements published in patent publication US20130217132A1, “METHODS, COMPOSITIONS AND USE FOR ENHANCING CHEMICAL TOLERANCE BY MICROORGANISMS” (priority 2009, published 2013).

Tested on: BW25113 araC::FRT-kan clone (JW0063)
Assay: Cell growth (OD600) in MOPS minimal media with furfural, araC knockout
Assay type: cell-based, E. coli
Conditions: furfural 1 g/L
Description: In other exemplary methods, tolerance and expression of LPS was restored in a microorganism. FIG. 19 represents an example of restoration of tolerance and LPS expression in BW25113 ArecA clone. The indicated cells were grown in MOPS minimal media supplemented with glucose as a carbon source. Furfural was added to the media at the concentration of 1 g/L. Arabinose was added at 10 mM where indicated to gauge effect of AraC binding. The BW25113 araC::FRT-kan clone corresponds to JW0063, a BW25113 araC knockout mutant ordered from the Keio Collection directly. pBTL-1 represented the blank vector, and pLPCA referred to lpcA gene overexpression. Consistent with the Examples above, overexpression of lpcA gene increased cell growth (OD600 of 0.1 vs. 0.05) in the presence of furfural. Addition of Arabinose to the lpcA gene overexpression cells could further enhance the effect (OD600 of 0.3). […] To analyze the LPS level in the cells indicated in FIG. 19, LPS are extracted from the cells grown to exponential phase. Loading of LPS for the protein gel is normalized to the cell number. The gel is stained to visualize LPS protein bands after desired separation is obtained.
BW25113, MG1655, and derivatives were used where indicated. JW0063, an araC mutant of BW25113 was obtained from the Coli Genetic Stock Center (Yale). Overnight bacterial cultures were grown in Luria-Bertani medium with shaking. […]

O=Cc1ccco1 [furfural, furan-2-carbaldehyde]
OD600 (cell growth in the presence of furfural) (araC::FRT-kan without lpcA overexpression, no Arabinose): 0.5 | OD600 (cell growth in the presence of furfural) (araC::FRT-kan, Arabinose 10 mM): 1.0
